Tests used:
[1] = test system: gastric secretion stimulated by histamine; assay: Anti-secretory effects when gastric secretion is stimulated by histamine (Experiment 3-1); assay type: in vivo, Sprague-Dawley male rats; settings: intravenous
Protocol: In accordance with the method [see Ghosh and Shild, et al., British Journal of pharmacology 13:54-61 (1958)], anti-secretory effects of the test substances were studied in this Experiment. Sprague-Dawley male rats having a body weight of 200±20 g were divided into 3 groups, Group 1 to be administered with the compound of Example 34, Group 2 to be administered with SK&F96067[see Keeling, D. […] The rats of each Group, deprived of food for 24 hours before the experiment with free access to water, were anesthetized by intraperitoneally administering of 1.5 g/kg of 20% aqueous urethane solution and positioned on the test plate which was heated and maintained at 37° C. The anesthetized rats were cannulated at the right jugular vein for the administration of the test compounds and the left jugular vein for the administration of stimulating substances. After an abdominal incision, tubes were inserted into the esophagus and duodenum, each of which was connected with saline in a thermostat and a fraction collector. […] To the left jugular vein, histamine was administered as a gastric secretion stimulator. […] The gastric secretion inhibition (%) of the test compounds was calculated from the following equation: The gastric secretion inhibition (%) of the test compounds =(A-C)/(A-B)×100 . . . (IV) in which […]

[2] = test system: gastric secretion stimulated by pentagastrin; assay: Inhibition of gastric secretion stimulated by pentagastrin (Experiment 3-2); assay type: in vivo, Sprague-Dawley male rats; settings: intravenous
[3] = biological target: T1, H^+ /K^+ ATPase (proton pump), gastric vesicles (Sus scrofa, UniProt P19156); assay: Determination of H+/K+ ATPase activity, Lineweaver-Burk kinetics versus K+ (Experiment 4-2); assay type: biochemical, pig
T1 construct: Gastric vesicles were prepared from pig stomach; from tissue; host or cells: pig stomach, lyophilized gastric vesicles
T1 sequence (P19156 2-1034 limits assumed): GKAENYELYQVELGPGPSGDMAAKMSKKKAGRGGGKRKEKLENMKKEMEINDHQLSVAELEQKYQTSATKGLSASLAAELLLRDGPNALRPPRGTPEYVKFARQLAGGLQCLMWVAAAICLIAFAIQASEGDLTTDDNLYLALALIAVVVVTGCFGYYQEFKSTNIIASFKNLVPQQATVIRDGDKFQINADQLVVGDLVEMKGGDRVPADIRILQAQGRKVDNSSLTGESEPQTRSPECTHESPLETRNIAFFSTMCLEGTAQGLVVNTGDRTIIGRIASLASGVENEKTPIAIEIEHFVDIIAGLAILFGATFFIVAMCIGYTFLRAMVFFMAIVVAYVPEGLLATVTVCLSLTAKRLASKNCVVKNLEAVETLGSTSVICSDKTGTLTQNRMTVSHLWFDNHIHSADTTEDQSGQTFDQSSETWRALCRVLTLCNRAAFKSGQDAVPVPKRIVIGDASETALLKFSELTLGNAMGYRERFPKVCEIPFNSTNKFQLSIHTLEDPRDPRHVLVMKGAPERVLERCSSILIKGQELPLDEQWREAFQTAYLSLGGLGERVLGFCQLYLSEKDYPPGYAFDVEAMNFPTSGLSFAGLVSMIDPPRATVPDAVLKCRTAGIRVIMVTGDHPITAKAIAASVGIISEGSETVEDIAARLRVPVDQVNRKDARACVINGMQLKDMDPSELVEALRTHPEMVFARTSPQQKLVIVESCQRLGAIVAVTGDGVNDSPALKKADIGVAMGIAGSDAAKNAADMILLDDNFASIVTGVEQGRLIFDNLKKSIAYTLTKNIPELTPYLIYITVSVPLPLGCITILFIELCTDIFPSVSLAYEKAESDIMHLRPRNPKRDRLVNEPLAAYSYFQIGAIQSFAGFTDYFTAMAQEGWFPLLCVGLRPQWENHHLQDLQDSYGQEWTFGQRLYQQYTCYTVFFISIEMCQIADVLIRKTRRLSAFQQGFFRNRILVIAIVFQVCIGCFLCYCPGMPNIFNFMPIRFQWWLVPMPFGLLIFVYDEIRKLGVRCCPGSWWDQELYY
T1 sequence (P18434 whole entry partner): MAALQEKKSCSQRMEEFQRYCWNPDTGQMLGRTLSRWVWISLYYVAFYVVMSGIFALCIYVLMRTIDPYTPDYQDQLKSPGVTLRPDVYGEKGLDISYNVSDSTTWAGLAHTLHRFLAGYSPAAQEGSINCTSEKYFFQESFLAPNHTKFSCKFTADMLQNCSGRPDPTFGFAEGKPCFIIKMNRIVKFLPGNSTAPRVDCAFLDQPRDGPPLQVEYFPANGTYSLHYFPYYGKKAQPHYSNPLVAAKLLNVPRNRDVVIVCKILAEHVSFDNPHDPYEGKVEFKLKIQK
Protocol: Gastric vesicles were prepared from pig stomach by the method described in Saccomani G., et al., J. Biol. Chem. 250, 4802-4809 (1975). The vesicles were lyophilized and kept at -70° C. The protein content was determined by the method of Lowry et al., using bovine serum albumin as standard[see Lowry, O. H., Rosebrough, N. J. and Randall, R. J., J. Biol. Chem. 193, 265-275 (1951)].
Test tubes were divided into 4 groups, each having 3 test tubes. As a control group, group 1 was added with the 10 μl of DMSO. Groups 2, 3 and 4 were administered with the compound prepared in example 34 whose final concentration are 0.17 μM, 0.33 μM and 0.67 μM, respectively. Each group was further divided into 3 small groups, in which enzymes were activated by ATP; ATP and Mg^++; and ATP, Mg^++ and K^+, respectively.
To all of the test tubes, were added 100 μl of lyophilized vesicles prepared at the concentration of 25 μg protein/ml and then 90 μl of 5 mM Pipes/Tris buffer pH 7.0. The compound prepared in Example 34 was added to each Group until the final concentration thereof became 0.17, 0.33 or 0.67 μM, respectively, They were preincubated for 15 minutes.
50 μl of ATP(3 mM) was added to each of the four Groups and the 50 μl of MgCl2 (2 mM) was added only to the 2nd and 3rd small groups of all Groups. Further, to the 3rd small groups of all Groups, were added 50 μl of KCl solution of various concentrations(from 0.1 mM to 30 mM) and then 150μl of Pipes/Tris buffer of pH 7.0. To the rest small groups, Pipes/Tris buffer of pH 7.0 was added until the volume became the same as that of the 3rd small group.
The test tube's were incubated at 37° C. for 30 minutes and then the reaction was terminated by adding 25% cold trichloroacetic acid solution. They were centrifuged by means of a microcentrifuge and the supernatant was taken up for the measurement of the released inorganic phosphate content by an automatic analyzer(CIBA CORNING, Express 550).
In accordance with the same procedures as above, except that 15 and 30 μm of omeprazole and 0.75, 1.5 and 3.0 μm of SK&F96067 were used as comparative substances, released inorganic phosphate content was measured.
The released inorganic phosphate contents of the three small groups were considered as the activity of H^+ /K^+ ATPase at each of the concentrations employed. The specific activity of H^+ /K^+ ATPase was calculated from the following equation:
Specific activity=(A-C)-(B-C) . . . (V)
A is the activity of enzyme activated by ATP, Mg^++ and , K^+ ;
B is the activity of enzyme activated by ATP and M^++ and
C is the activity of enzyme activated by ATP.
The specific activity, thus calculated, of Groups 1, 2, 3 and 4 which employed DMSO and the compound of Example 34 at 3 different concentrations were then plotted with respect to the concentration of KCl in FIG. 1 according to the method of Lineweaver-Burk, wherein .box-solid., .quadrature. and .largecircle. represent the respective concentrations of the compound of Example 34 of 0.67 μM, 0.33 μM and 0.17 μM; and .oval-solid. represents concentration of the DMSO compound. FIG. 2 depicts the Lineweaver-Burk plot of the specific activities obtained from SK&F96067, wherein .box-solid., .quadrature. and .largecircle. represent its respective concentrations of 3.0 μM, 1.5 μM, 0.75 μM; and .oval-solid. represents concentration of the DMSO compound. FIG. 3 illustrates the Lineweaver-Burk plot of the specific activities obtained from omeprazole, wherein .oval-solid. and .quadrature. represent its concentrations of 15 μM and 30 μM; and .largecircle. represents the concentration of DMSO.

[4] = biological target: T2, H^+ /K^+ ATPase, gastric vesicles (Sus scrofa, UniProt P19156); assay: Reversibility of inhibition, Dilution and Washout method (Experiment 4-3); assay type: biochemical, pig
T2 construct: Gastric vesicles were prepared from pig stomach; from tissue; host or cells: pig stomach, lyophilized gastric vesicles
T2 sequence (P19156 2-1034 limits assumed): as the sequence (P19156 2-1034 limits assumed) above
T2 sequence (P18434 whole entry partner): as the sequence (P18434 whole entry partner) above
Protocol: The vesicles were lyophilized and kept at -70° C.
To all […] groups, was added 100 μl of lyophilized vesicles prepared in Experiment 4-1 at the concentration of 100 μg protein 1 ml. Then, 5 mM Pipes/Tris buffer(pH 6.4 ) was added to the three groups until the volume of test tubes became 150 μl. After the preincubation for 15 minutes, H^+ /K^+ ATPase activity was measured in accordance with the same procedures as in Experiment 4-2. The concentrations of the test substances as indicated above are the final concentrations.
After the completion of preincubation, each group was diluted 50 times with 5 mM Pipes/Tris buffer(pH 6.4), and then centrifuged for 60 minutes by means of Beckman ultracentrifuge(Model L8-80). The supernatant was discarded and the pellet was suspended with 5 mM Pipes/Tris buffer pH 6.4 until the volume became the same as the preincubation volume.

CCCC(=O)c1cnc2c(OC)cccc2c1Nc1ccccc1C [SK&F96067]
The gastric secretion inhibition (%) ([1]; 0.5 mg/kg): 29.8%
The gastric secretion inhibition (%) ([1]; 1.0 mg/kg): 57.1%
The gastric secretion inhibition (%) ([1]; 3.0 mg/kg): 75.9%
ED50 ([1]; Rattus norvegicus, read-out: ED50, gastric secretion inhibition): 0.96 mg/kg
The gastric secretion inhibition ([2]; 1.0 mg/kg): 32.6%
The gastric secretion inhibition ([2]; 3.0 mg/kg): 64.0%
The gastric secretion inhibition ([2]; 5.0 mg/kg): 77.3%
ED50 ([2]; Rattus norvegicus): 1.85 mg/kg
Competitive inhibition with K+ at the K+ binding site of proton pump ([3]; Lineweaver-Burk plot, KCl 0.1 to 30 mM): inhibited competitively with K^+
Ki ([3]; Lineweaver-Burk, versus K+, pH 7.0): 700 nM
Reversibility of the inhibition of the enzyme activity ([4]; conclusion from Table 4): reversible
Inhibition of H+/K+ ATPase activity before Dilution and Washout ([4]; pH 6.4, Example 34 at 6 μM, omeprazole and SK&F96067 at 60 μM): 80%

Source: US5686458A, “Quinazoline deriviates for treating peptic ulcer” (Yuhan Corporation, priority 1992, dated 1997)
